The values below come from patent publication US4794183A, “Certain tetrahydro-furan or pyran phosphate-ethylene or propylene ammonium derivatives” (Sankyo Company Limited, priority 1985, dated 1988).

Broadly, the EC50 is the concentration at which the effect is half-maximal.

Like-named read-outs stand apart in the source and are kept apart here. Bounds are passed on as bounds.

Assay [1] deals with sarcoma 180. Put plainly: Anti-tumor effect, survival of mice transplanted intraperitoneally with sarcoma 180 ascites cells. The class given is in vivo, mice (ICR/Jcl strain, female). The following applies: for ILS (increase in lifespan) / No. surviving after 60 days: single dose, intraperitoneal; for ILS (increase in lifespan): (Tt-Tc) as percentage of Tc; for No. surviving after 60 days: survivors/number in test group; for mice kept alive at the end of 60 days: text summary of Table 8, dose not stated. How it is done:
The test animals used were 8 week old female mice of the ICR/Jcl strain and were employed in groups of 5 mice for each test. Into each mouse were transplanted intraperitoneally 1×10^5 ascites cells of sarcoma 180. The day after transplantation, the test compound, dissolved in sterilized physiological saline, was administered in a single dose (in the amount shown in the following Table 8) intraperitoneally to the animals. A control group was given an intraperitoneal administration of sterilized physiological saline without any active compound. The results are reported in the following Table 8 as follows: Tt /Tc, where Tt is the mean survival time (in days) of the mice of a test group (i.e. to which one of the test compound was administered) and Tc is the mean survival time (in days) of the control group; ILS (%), i.e. the increase in lifespan, which is calculated as (Tt -Tc) expressed as a percentage of Tc; and number surviving after 60 days, in which the first number is the number of animals surviving, and the second number is the number in the test group.

Assay [2] deals with rabbits' platelet-rich plasma. Put plainly: Platelet aggregating activity using rabbits' platelet-rich plasma (method of Born et al.). The class given is cell-based, rabbit. The note with it: Oryctolagus cuniculus, read-out: Platelet aggregating effect (EC50). On the procedure: The platelet aggregating activity of the compounds of the invention using rabbits' platelet-rich plasma was examined by the method of Born et al. [Born et al., J. Physiol., 162, 67-68 (1962)]. The EC50 values were calculated. As in Experiment 2, C16 PAF was used as a reference.

[3] abbreviates: rabbits' platelet-rich plasma, C16 PAF as reference.

Regarding `CCCCCCCCCCCCCCCCOC[C@H]1OCCC[C@@H]1OP(=O)([O-])OCC[N+](C)(C)C` (relative stereo) [Example 1, dl-(trans-2-Hexadecyloxymethyltetrahydropyran-3-yl) 2-(trimethylammonio)ethyl phosphate], the “ILS (increase in lifespan)” value in assay [1] (5 mg/kg) turned out to be 169%; in assay [1] (10 mg/kg) it was 136%. Besides, the “No. surviving after 60 days” value in assay [1] (5 mg/kg) is recorded as 2/5; in assay [1] (10 mg/kg), 1/5. Further, in assay [1], the “mice kept alive at the end of 60 days” value is on record as 2 of the 5. The EC50 in assay [2] (setting [3]) was over 100 µM.
On to `CCCCCCCCCCCCCCCCOC[C@H]1OCC[C@@H]1OP(=O)([O-])OCC[N+](C)(C)C` (relative stereo) [Example 5, dl-(trans-2-Hexadecyloxymethyltetrahydrofuran-3-yl) 2-(trimethylammonio)ethyl phosphate], for which, in assay [1] (5 mg/kg), the “ILS (increase in lifespan)” value stood at 157% and the “No. surviving after 60 days” value is recorded as 2/5. For the same compound, the “mice kept alive at the end of 60 days” value in assay [1] was 2 of the 5. In addition, the EC50 in assay [2] (setting [3]) is over 100 µM.
Turning to `CCCCCCCCCCCCCCCCOCC(COP(=O)([O-])OCC[N+](C)(C)C)OC(C)=O` (stereo not shown) [C16 PAF, reference compound], the EC50 in assay [2] (Platelet) was 0.009 µM.
In the case of `CCCCCCCCCCCCCCCCOC[C@H]1OCCC[C@@H]1OP(=O)([O-])OCC[n+]1ccccc1` (relative stereo) [Example 6, dl-(trans-2-Hexadecyloxymethyltetrahydropyran-3-yl) 2-pyridinioethyl phosphate], in assay [1] (20 mg/kg), the “ILS (increase in lifespan)” value is reported as 155% and the “No. surviving after 60 days” value is on record as 0/5.
Take `CCCCCCCCCCCCCCCCO[C@@H]1CCCO[C@H]1COP(=O)([O-])OCC[N+](C)(C)C` (relative stereo) [Example 3, dl-(trans-3-Hexadecyloxytetrahydropyran-2-yl)methyl 2-(trimethylammonio)ethyl phosphate]: in assay [1] (10 mg/kg), the “ILS (increase in lifespan)” value stood at 127% and the “No. surviving after 60 days” value was 1/5. Moreover, in assay [2] (setting [3]), the EC50 was over 400 µM.
